In patent US20250144094A1 (Erasca, Inc., priority 2021, published 2025):

Each compound was assayed against Recombinant human ULK1 (1-649) (Homo sapiens (Human), UniProt O75385) (assay: ULK1 ADP Glo kinase activity assay, new method (ULKtide peptide substrate)). Conditions: 25° C., 40 minutes, read-out: ULK1 biochemical IC50.
Description: Recombinant human ULK1 (1-649) protein expressed in Sf9 insect cells was obtained from SignalChem (Vancouver, BC), catalog #U01-11G. Active kinase was purified via N-terminal GST tag to >85% purity.
ADP GLO Kinase Assay Reagents were obtained from Promega Corp (Madison, WI), catalog #V9104.
Synthetic peptide substrate (ULKtide) with the amino acid sequence YANWLAASIYLDGKKK was obtained from ThermoFisher Scientific USA.
ULK1 inhibitor potency was determined using the luminescent ADP Glo Kinase Assay (Promega), a universal ADP detection system that measures kinase activity by quantifying the amount of ADP produced during a kinase reaction. ULK1 kinase reactions are performed in a standard 96-well microplate (20 μL reaction volume) at 25° C. for 40 minutes in the presence or absence of the test compound (12-point dilution series starting at 10 μM). Addition of peptide substrate and ATP initiates the kinase reaction.
The standard ADP Glo assay is performed in two steps. In step one, following the kinase reaction, an equal volume of ADP-Glo™ Reagent (20 μL) is added to terminate the kinase reaction and deplete the remaining ATP. In the second step, the Kinase Detection Reagent (10 μL) is added to simultaneously convert ADP to ATP and allow the newly synthesized ATP to be measured using a luciferase/luciferin reaction. Step two of the ADP Glo assay is performed in a white 384-well plate (20 μL final volume). Thirty minutes after the addition of the Detection reagent, light generated from the luciferase reaction is measured (1 second exposure) using a microplate compatible luminometer (CLARIOstar, BMG Labtech).
Inhibition of ULK1 kinase activity is determined for each test compound by comparison to DMSO only control wells. Inhibitor IC50 was calculated by plotting the change in luminescence after 30 minutes (response) versus inhibitor concentration (in log molar) then applying the four-parameter variable slope curve fit (GraphPad Prism). Inhibition of ULK1 in biochemical assay is found in Table 4.

Recombinant human ULK1 (1-649), sequence (O75385 1-649): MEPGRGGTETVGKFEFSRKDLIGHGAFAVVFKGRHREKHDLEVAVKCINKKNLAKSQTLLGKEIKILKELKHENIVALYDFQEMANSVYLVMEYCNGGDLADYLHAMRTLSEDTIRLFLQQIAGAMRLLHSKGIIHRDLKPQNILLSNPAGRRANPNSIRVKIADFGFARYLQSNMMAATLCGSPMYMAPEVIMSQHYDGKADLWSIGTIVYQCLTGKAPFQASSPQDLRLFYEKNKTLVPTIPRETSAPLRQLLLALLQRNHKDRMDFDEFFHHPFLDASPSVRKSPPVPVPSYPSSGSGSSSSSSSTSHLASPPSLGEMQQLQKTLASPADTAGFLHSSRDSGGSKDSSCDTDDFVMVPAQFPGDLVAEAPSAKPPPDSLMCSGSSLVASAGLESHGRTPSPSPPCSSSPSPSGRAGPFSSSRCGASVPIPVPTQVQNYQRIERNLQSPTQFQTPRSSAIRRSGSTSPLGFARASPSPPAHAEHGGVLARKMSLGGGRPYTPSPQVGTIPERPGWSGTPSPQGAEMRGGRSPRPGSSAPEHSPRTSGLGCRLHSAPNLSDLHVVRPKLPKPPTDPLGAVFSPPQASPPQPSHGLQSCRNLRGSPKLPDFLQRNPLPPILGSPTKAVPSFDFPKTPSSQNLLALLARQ

Compound	IC50 [nM]
4-cyclopropyl-7-(2-((4-(1-(2,2-difluoroethyl)piperidin-4-yl)-2-ethylphenyl)amino)-5-(trifluoromethyl)pyrimidin-4-yl)-3,4-dihydrothieno[2,3-f][1,4]thiazepin-5(2H)-one 1,1-dioxide [Example 281]	5 to 10
Cc1ccc(C2CNC2)cc1Nc1ncc(C(F)(F)F)c(-c2cc(S(C)(=O)=O)cs2)n1 [Example 136, N-(5-(azetidin-3-yl)-2-methylphenyl)-4-(4-(methylsulfonyl)thiophen-2-yl)-5-(trifluoromethyl)pyrimidin-2-amine]	50 to 100
Cc1ccc(C2CN(C)C2)cc1Nc1ncc(C(F)(F)F)c(-c2cc(S(C)(=O)=O)cs2)n1 [Example 137, N-(2-Methyl-5-(1-methylazetidin-3-yl)phenyl)-4-(4-(methylsulfonyl)thiophen-2-yl)-5-(trifluoromethyl)pyrimidin-2-amine]	> 100
CCc1cc2c(cc1Nc1ncc(C(F)(F)F)c(-c3cc4c(s3)C(=O)NCCS4(=O)=O)n1)CCNC2 [Example 138, 7-(2-((7-ethyl-1,2,3,4-tetrahydroisoquinolin-6-yl)amino)-5-(trifluoromethyl)pyrimidin-4-yl)-3,4-dihydrothieno[2,3-f][1,4]thiazepin-5(2H)-one 1,1-dioxide]	≤ 5
CN1CCc2cc(Nc3ncc(C(F)(F)F)c(-c4cc5c(s4)C(=O)NCCS5(=O)=O)n3)c(F)cc2C1 [Example 139, 7-(2-((7-fluoro-2-methyl-1,2,3,4-tetrahydroisoquinolin-6-yl)amino)-5-(trifluoromethyl)pyrimidin-4-yl)-3,4-dihydrothieno[2,3-f][1,4]thiazepin-5(2H)-one 1,1-dioxide]	≤ 5
CN1CCc2cc(Nc3ncc(C(F)(F)F)c(-c4cc5c(s4)C(=O)N(C)CCS5(=O)=O)n3)c(F)cc2C1 [Example 140, 7-(2-((7-fluoro-2-methyl-1,2,3,4-tetrahydroisoquinolin-6-yl)amino)-5-(trifluoromethyl)pyrimidin-4-yl)-4-methyl-3,4-dihydrothieno[2,3-f][1,4]thiazepin-5(2H)-one 1,1-dioxide]	≤ 5
CN1CCS(=O)(=O)c2cc(-c3nc(Nc4cn(C5CCNCC5)nc4C4CC4)ncc3C(F)(F)F)sc2C1=O [Example 141, 7-(2-((3-cyclopropyl-1-(piperidin-4-yl)-1H-pyrazol-4-yl)amino)-5-(trifluoromethyl)pyrimidin-4-yl)-4-methyl-3,4-dihydrothieno[2,3-f][1,4]thiazepin-5(2H)-one 1,1-dioxide]	≤ 5
CCN1CCS(=O)(=O)c2cc(-c3nc(Nc4cc5c(cc4Cl)CN(C)CC5)ncc3C(F)(F)F)sc2C1=O [Example 142, 7-(2-((7-chloro-2-methyl-1,2,3,4-tetrahydroisoquinolin-6-yl)amino)-5-(trifluoromethyl)pyrimidin-4-yl)-4-ethyl-3,4-dihydrothieno[2,3-f][1,4]thiazepin-5(2H)-one 1,1-dioxide]	≤ 5
O=C1c2sc(-c3nc(Nc4cc5c(cc4Cl)CNCC5)ncc3C(F)(F)F)cc2S(=O)(=O)CCN1CC(F)(F)F [Example 143, 7-(2-((7-chloro-1,2,3,4-tetrahydroisoquinolin-6-yl)amino)-5-(trifluoromethyl)pyrimidin-4-yl)-4-(2,2,2-trifluoroethyl)-3,4-dihydrothieno[2,3-f][1,4]thiazepin-5(2H)-one 1,1-dioxide]	≤ 5
CN1CCc2cc(Nc3ncc(C(F)(F)F)c(-c4cc5c(s4)C(=O)N(CC(F)(F)F)CCS5(=O)=O)n3)c(Cl)cc2C1 [Example 144, 7-(2-((7-chloro-2-methyl-1,2,3,4-tetrahydroisoquinolin-6-yl)amino)-5-(trifluoromethyl)pyrimidin-4-yl)-4-(2,2,2-trifluoroethyl)-3,4-dihydrothieno[2,3-f][1,4]thiazepin-5(2H)-one 1,1-dioxide]	≤ 5
CN1CC(n2cc(Nc3ncc(C(F)(F)F)c(-c4cc(S(C)(=O)=O)cs4)n3)c(C3CC3)n2)C1 [Example 145, N-(3-cyclopropyl-1-(1-methylazetidin-3-yl)-1H-pyrazol-4-yl)-4-(4-(methylsulfonyl)thiophen-2-yl)-5-(trifluoromethyl)pyrimidin-2-amine]	5 to 10
CCc1cc2c(cc1Nc1ncc(C(F)(F)F)c(-c3cc4c(s3)C(=O)NCCS4(=O)=O)n1)CCN(C)C2 [Example 146, 7-(2-((7-ethyl-2-methyl-1,2,3,4-tetrahydroisoquinolin-6-yl)amino)-5-(trifluoromethyl)pyrimidin-4-yl)-3,4-dihydrothieno[2,3-f][1,4]thiazepin-5(2H)-one 1,1-dioxide]	≤ 5
CCc1cc2c(cc1Nc1ncc(C(F)(F)F)c(-c3cc4c(s3)C(=O)N(C)CCS4(=O)=O)n1)CCNC2 [Example 147, 7-(2-((7-ethyl-1,2,3,4-tetrahydroisoquinolin-6-yl)amino)-5-(trifluoromethyl)pyrimidin-4-yl)-4-methyl-3,4-dihydrothieno[2,3-f][1,4]thiazepin-5(2H)-one 1,1-dioxide]	≤ 5
CCc1cc2c(cc1Nc1ncc(C(F)(F)F)c(-c3cc4c(s3)C(=O)N(C)CCS4(=O)=O)n1)CCN(C)C2 [Example 148, 7-(2-((7-ethyl-2-methyl-1,2,3,4-tetrahydroisoquinolin-6-yl)amino)-5-(trifluoromethyl)pyrimidin-4-yl)-4-methyl-3,4-dihydrothieno[2,3-f][1,4]thiazepin-5(2H)-one 1,1-dioxide]	≤ 5
CN1CCS(=O)(=O)c2cc(-c3nc(Nc4cc(C5CCNCC5)ccc4Cl)ncc3C(F)(F)F)sc2C1=O [Example 149, 7-(2-((2-chloro-5-(piperidin-4-yl)phenyl)amino)-5-(trifluoromethyl)pyrimidin-4-yl)-4-methyl-3,4-dihydrothieno[2,3-f][1,4]thiazepin-5(2H)-one 1,1-dioxide]	10 to 50
CN1CCC(c2ccc(Cl)c(Nc3ncc(C(F)(F)F)c(-c4cc5c(s4)C(=O)N(C)CCS5(=O)=O)n3)c2)CC1 [Example 150, 7-(2-((2-chloro-5-(1-methylpiperidin-4-yl)phenyl)amino)-5-(trifluoromethyl)pyrimidin-4-yl)-4-methyl-3,4-dihydrothieno[2,3-f][1,4]thiazepin-5(2H)-one 1,1-dioxide]	10 to 50
O=C1NCCS(=O)(=O)c2cc(-c3nc(Nc4cn(C5CCNCC5)nc4C4CC4)ncc3C(F)(F)F)sc21 [Example 151, 7-(2-((3-cyclopropyl-1-(piperidin-4-yl)-1H-pyrazol-4-yl)amino)-5-(trifluoromethyl)pyrimidin-4-yl)-3,4-dihydrothieno[2,3-f][1,4]thiazepin-5(2H)-one 1,1-dioxide]	≤ 5
CN1CCC(n2cc(Nc3ncc(C(F)(F)F)c(-c4cc5c(s4)C(=O)NCCS5(=O)=O)n3)c(C3CC3)n2)CC1 [Example 152, 7-(2-((3-cyclopropyl-1-(1-methylpiperidin-4-yl)-1H-pyrazol-4-yl)amino)-5-(trifluoromethyl)pyrimidin-4-yl)-3,4-dihydrothieno[2,3-f][1,4]thiazepin-5(2H)-one 1,1-dioxide]	≤ 5
CN1CCc2cc(Nc3ncc(C(F)(F)F)c(-c4cc5c(s4)C(=O)N(CC4CC4)CCS5(=O)=O)n3)c(Cl)cc2C1 [Example 154, 7-(2-((7-chloro-2-methyl-1,2,3,4-tetrahydroisoquinolin-6-yl)amino)-5-(trifluoromethyl)pyrimidin-4-yl)-4-(cyclopropylmethyl)-3,4-dihydrothieno[2,3-f][1,4]thiazepin-5(2H)-one 1,1-dioxide]	≤ 5
O=C1c2sc(-c3nc(Nc4cc5c(cc4Cl)CNCC5)ncc3C(F)(F)F)cc2S(=O)(=O)CCN1C1CC1 [Example 155, 7-(2-((7-chloro-1,2,3,4-tetrahydroisoquinolin-6-yl)amino)-5-(trifluoromethyl)pyrimidin-4-yl)-4-cyclopropyl-3,4-dihydrothieno[2,3-f][1,4]thiazepin-5(2H)-one 1,1-dioxide]	≤ 5
CN1CCS(=O)(=O)c2cc(-c3nc(Nc4cc5c(cc4Cl)CNCC5)ncc3C(F)(F)F)sc2C1=O [Example 156, 7-(2-((7-chloro-1,2,3,4-tetrahydroisoquinolin-6-yl)amino)-5-(trifluoromethyl)pyrimidin-4-yl)-4-methyl-3,4-dihydrothieno[2,3-f][1,4]thiazepin-5(2H)-one 1,1-dioxide]	≤ 5
CN1CCS(=O)(=O)c2cc(-c3nc(Nc4cc5c(cc4F)CNC5)ncc3C(F)(F)F)sc2C1=O [Example 157, 7-(2-((6-fluoroisoindolin-5-yl)amino)-5-(trifluoromethyl)pyrimidin-4-yl)-4-methyl-3,4-dihydrothieno[2,3-f][1,4]thiazepin-5(2H)-one 1,1-dioxide]	≤ 5
O=C1c2sc(-c3nc(Nc4cc5c(cc4Cl)CNCC5)ncc3C(F)(F)F)cc2S(=O)(=O)CCN1C1CCC1 [Example 158, 7-(2-((7-chloro-1,2,3,4-tetrahydroisoquinolin-6-yl)amino)-5-(trifluoromethyl)pyrimidin-4-yl)-4-cyclobutyl-3,4-dihydrothieno[2,3-f][1,4]thiazepin-5(2H)-one 1,1-dioxide]	≤ 5
